*1 amine or outer side, *2 acyl side, *3 side chain or, on linkers, in order; H or OH if unused. Where a SMILES comes first, the peptide text is derived from it. The star is where a group is joined. CO = O=C([*:1])[*:2]; Bn = c1ccc(C*)cc1; OtBu = CC(C)(C)O*
Target: T1, N-type Ca2+ channels in IMR-32 cells (Homo sapiens, UniProt Q00975)
T1 construct: host or cells: IMR-32 cells, differentiated with dibutyryl cAMP and bromodeoxyuridine
Assay: Inhibition of N-type calcium flux in IMR-32 cells (Indo-1 fluorescence, nitrendipine present)
Format: cell-based
Details: for IC50: IMR-32 cells, 5 μM nitrendipine, K+ depolarization; for inhibition at 1 µM / inhibition at 10 µM: IMR-32
How it was run: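 Differentiated IMR-32 cells (7–13 days) were loaded with 5 μM Indo-1 AM, preincubated with compound for 10 min at 30° C, and depolarized with KCl/CaCl2 stimulation solution, with 5 μM nitrendipine blocking L-channels. Peak-minus-basal 400/490 nm emission ratio was plotted against drug concentration, and IC50 came from four-parameter logistic fits.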

T1 sequence (Q00975 whole entry): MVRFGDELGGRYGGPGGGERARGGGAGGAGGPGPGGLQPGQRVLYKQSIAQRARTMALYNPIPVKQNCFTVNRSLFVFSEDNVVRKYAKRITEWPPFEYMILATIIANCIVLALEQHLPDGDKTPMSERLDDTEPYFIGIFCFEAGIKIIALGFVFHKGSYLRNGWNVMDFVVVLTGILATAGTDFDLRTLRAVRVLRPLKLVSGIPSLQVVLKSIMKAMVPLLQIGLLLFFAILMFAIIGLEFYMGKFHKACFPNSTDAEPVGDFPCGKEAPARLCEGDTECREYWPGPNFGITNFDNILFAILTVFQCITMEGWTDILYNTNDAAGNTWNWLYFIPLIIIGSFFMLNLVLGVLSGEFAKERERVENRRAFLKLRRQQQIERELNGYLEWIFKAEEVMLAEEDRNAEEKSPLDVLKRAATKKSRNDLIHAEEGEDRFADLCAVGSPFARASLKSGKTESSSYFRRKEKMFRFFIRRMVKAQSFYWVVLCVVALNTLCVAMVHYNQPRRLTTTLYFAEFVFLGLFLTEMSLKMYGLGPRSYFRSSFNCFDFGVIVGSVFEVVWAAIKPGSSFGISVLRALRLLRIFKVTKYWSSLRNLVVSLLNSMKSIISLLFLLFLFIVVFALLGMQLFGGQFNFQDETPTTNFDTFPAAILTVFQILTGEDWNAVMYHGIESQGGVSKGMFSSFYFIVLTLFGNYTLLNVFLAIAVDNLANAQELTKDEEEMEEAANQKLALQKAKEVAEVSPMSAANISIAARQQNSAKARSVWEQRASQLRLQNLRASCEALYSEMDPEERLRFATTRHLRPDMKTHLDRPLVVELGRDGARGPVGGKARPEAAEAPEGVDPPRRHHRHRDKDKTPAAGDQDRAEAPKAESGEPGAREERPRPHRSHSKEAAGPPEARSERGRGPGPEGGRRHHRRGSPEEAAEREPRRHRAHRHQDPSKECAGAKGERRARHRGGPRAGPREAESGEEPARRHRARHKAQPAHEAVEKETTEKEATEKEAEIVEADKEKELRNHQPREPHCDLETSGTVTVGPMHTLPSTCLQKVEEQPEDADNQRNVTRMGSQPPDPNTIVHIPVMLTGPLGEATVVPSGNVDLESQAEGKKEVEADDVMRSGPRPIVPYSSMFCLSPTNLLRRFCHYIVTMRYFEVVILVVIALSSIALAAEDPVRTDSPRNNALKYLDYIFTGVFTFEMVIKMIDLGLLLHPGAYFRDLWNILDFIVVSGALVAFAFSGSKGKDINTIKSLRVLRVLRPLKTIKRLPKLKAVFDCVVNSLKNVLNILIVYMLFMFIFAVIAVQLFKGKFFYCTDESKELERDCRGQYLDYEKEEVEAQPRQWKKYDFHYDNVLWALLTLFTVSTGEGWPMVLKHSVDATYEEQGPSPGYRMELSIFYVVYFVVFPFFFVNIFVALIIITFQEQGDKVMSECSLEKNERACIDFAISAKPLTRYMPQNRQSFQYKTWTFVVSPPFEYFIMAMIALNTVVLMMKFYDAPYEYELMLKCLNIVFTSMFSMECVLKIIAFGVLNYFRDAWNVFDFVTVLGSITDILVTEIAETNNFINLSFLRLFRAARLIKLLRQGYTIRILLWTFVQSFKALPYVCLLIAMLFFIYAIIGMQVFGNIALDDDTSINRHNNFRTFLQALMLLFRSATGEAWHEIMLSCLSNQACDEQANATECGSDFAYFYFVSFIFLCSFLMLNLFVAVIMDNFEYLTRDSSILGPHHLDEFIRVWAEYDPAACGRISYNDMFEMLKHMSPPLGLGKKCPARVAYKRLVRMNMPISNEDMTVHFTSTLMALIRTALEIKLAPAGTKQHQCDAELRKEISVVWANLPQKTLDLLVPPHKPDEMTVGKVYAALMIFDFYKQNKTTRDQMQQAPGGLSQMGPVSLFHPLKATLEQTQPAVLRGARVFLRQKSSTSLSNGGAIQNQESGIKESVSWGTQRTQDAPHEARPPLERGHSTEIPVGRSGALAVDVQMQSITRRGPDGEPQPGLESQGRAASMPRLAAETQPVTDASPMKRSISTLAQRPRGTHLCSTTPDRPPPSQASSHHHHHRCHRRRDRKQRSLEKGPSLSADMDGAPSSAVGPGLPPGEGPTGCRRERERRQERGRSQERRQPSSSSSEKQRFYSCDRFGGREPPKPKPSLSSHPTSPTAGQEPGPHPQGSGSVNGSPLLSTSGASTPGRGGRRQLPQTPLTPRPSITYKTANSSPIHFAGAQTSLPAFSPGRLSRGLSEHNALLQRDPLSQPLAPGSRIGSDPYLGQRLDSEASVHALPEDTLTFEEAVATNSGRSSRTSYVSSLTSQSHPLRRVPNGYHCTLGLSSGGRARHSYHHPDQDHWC
T1 sequence (P54289 25-956 partner limits assumed): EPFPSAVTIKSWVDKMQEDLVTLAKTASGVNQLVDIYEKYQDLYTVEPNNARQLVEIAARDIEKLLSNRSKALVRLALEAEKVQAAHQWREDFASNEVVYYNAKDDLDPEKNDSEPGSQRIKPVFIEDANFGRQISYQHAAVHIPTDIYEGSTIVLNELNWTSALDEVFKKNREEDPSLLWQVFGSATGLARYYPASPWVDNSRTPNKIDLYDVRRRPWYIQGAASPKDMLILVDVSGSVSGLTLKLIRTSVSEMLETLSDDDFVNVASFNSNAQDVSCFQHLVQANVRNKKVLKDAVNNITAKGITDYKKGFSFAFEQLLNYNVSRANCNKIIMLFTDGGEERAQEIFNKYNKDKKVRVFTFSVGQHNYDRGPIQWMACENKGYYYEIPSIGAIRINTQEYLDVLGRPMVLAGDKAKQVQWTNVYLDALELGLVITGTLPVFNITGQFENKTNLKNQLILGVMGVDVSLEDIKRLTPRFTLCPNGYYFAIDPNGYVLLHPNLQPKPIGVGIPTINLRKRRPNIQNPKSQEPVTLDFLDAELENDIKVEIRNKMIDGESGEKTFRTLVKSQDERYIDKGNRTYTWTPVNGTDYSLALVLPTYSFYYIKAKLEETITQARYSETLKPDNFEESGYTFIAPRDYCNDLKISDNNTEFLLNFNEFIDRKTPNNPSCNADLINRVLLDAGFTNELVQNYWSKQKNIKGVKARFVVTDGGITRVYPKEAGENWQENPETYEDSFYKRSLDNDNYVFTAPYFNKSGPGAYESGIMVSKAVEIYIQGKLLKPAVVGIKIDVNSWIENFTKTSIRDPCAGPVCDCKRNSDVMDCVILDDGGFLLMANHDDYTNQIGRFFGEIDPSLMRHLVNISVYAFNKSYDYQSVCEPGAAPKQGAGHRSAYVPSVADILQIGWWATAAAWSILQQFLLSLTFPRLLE
T1 sequence (P54289 957-1103 partner limits assumed): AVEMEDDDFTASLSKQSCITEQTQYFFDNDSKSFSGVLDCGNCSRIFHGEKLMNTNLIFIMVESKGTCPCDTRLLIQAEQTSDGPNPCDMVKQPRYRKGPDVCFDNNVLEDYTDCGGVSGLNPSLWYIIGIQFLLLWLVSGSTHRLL
T1 sequence (P54284 whole entry partner): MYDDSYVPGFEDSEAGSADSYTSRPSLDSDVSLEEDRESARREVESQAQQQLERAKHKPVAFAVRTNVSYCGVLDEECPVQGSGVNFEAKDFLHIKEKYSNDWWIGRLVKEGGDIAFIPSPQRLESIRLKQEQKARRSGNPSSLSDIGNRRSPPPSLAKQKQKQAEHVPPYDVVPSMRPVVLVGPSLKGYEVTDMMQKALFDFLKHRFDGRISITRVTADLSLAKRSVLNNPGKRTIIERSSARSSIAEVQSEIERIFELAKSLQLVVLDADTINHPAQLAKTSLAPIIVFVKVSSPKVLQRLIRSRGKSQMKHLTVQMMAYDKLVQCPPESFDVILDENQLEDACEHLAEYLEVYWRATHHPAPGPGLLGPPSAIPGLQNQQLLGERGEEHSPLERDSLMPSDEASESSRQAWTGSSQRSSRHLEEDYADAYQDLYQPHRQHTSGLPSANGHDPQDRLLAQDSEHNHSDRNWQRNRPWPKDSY

Row | SMILES | IC50 | Inhibition of Calcium Flux in IMR-32 Cells % Inhibition at 1 μM | other results
1 | CC(C)CC(NC(=O)N1CCCCCC1)C(=O)NC(Cc1ccc(OCc2ccccc2)cc1)C(=O)NC1CCCN(CC(C)C)C1 (stereo not drawn) [Example 198, Azepane-1-carboxylic acid {1-[2-(4-benzyloxy-phenyl)-1-(1-isobutyl-piperidin-3-ylcarbamoyl)-ethylcarbamoyl]-3-methyl-butyl}-amide] | 0.36 µM | – | –
2 | CC(C)C[C@H](NC(=O)CCc1c[nH]c2ccccc12)C(=O)N[C@@H](Cc1ccc(OCc2ccccc2)cc1)C(=O)OC(C)(C)C (relative stereo) [Example 120, [S-(R*,R*)]-3-(4-Benzyloxy-phenyl)-2-[2-(3-1H-indol-3-yl-propionylamino)-4-methyl-pentanoylamino]-propionic acid tert-butyl ester] | – | – | Inhibition of Calcium Flux in IMR-32 Cells % Inhibition at 10 μM: 65%
3 | Cc1noc(C)c1S(=O)(=O)N[C@@H](CC(C)C)C(=O)N[C@@H](Cc1ccc(OCc2ccccc2)cc1)C(=O)OC(C)(C)C [Example 111, [S-(R*,R*)]-3-(4-Benzyloxy-phenyl)-2-[2-(3,5-dimethyl-isoxazole-4-sulfonylamino)-4-methyl-pentanoylamino]-propionic acid tert-butyl ester] | 1.1 µM | – | inhibition at 1 µM: 50%; inhibition at 10 µM: 96%
4 | CC(C)C[C@H](NC(=O)N1CCCCCC1)C(=O)N[C@@H](Cc1ccc(OCc2ccccc2)cc1)C(=O)NCCCN1CCCC1 [Example 268, [S-(R*,R*)]-Azepane-1-carboxylic acid {1-[2-(4-benzyloxy-phenyl)-1-(3-pyrrolidin-1-yl-propylcarbamoyl)-ethylcarbamoyl]-3-methyl-butyl}-amide] | 2.9 µM | – | –
5 | CCC(COC)NC(=O)C(Cc1ccc(OCc2ccccc2)cc1)NC(=O)C(CC(C)C)NC(=O)N1CCCCCC1 (stereo not drawn) [Example 245, Azepane-1-carboxylic acid {1-[2-(4-benzyloxy-phenyl)-1-(1-methoxymethyl-propylcarbamoyl)-ethylcarbamoyl]-3-methyl-butyl}-amide] | – | – | inhibition at 1 µM: 57%; inhibition at 10 µM: 89%
6 | CC(C)CC(NC(=O)N1CCCCCC1)C(=O)NC(Cc1ccc(OCc2ccccc2)cc1)C(=O)N1CCCC(C)C1 (stereo not drawn) [Example 200, Azepane-1-carboxylic acid {1-[1-(4-benzyloxy-benzyl)-2-(3-methyl-piperidin-1-yl)-2-oxo-ethylcarbamoyl]-3-methyl-butyl}-amide] | 0.9 µM | – | inhibition at 1 µM: 53%; inhibition at 10 µM: 88%
7 | CC(C)CC(NC(=O)N1CCCCCC1)C(=O)NC(Cc1ccc(OCc2ccccc2)cc1)C(=O)NC(CO)C(O)c1ccccc1 (stereo not drawn) [Example 227, [S-(R*,R*)]-Azepane-1-carboxylic acid {1-[2-(4-benzyloxy-phenyl)-1-(2-hydroxy-1-hydroxymethyl-2-phenyl-ethylcarbamoyl)-ethylcarbamoyl]-3-methyl-butyl}-amide] | – | 19% | Inhibition of Calcium Flux in IMR-32 Cells % Inhibition at 10 μM: 86%
8 | CCCNC(=O)[C@H](Cc1ccc(OCc2ccccc2)cc1)NC(=O)[C@H](CC(C)C)NC(=O)N1CCCCCC1 [Example 169, [S-(R*,R*)]-Azepane-1-carboxylic acid {1-[2-(4-benzyloxy-phenyl)-1-propylcarbamoyl-ethylcarbamoyl]-3-methyl-butyl}-amide] | 1.6 µM | – | –
9 | CC(C)C[C@H](NC(=O)N1CCCCCC1)C(=O)N[C@@H](Cc1ccc(OCc2ccccc2)cc1)C(=O)Nc1ccc(Oc2ccccc2)cc1 [Example 213, [S-(R*,R*)]-Azepane-1-carboxylic acid {1-[2-(4-benzyloxy-phenyl)-1-(4-phenoxy-phenylcarbamoyl)-ethylcarbamoyl]-3-methyl-butyl}-amide] | 2.4 µM | – | inhibition at 1 µM: 30%; inhibition at 10 µM: 33%
10 | CCOc1ccc(C(=O)N[C@@H](CC(C)C)C(=O)N[C@@H](Cc2ccc(OCc3ccccc3)cc2)C(=O)OC(C)(C)C)cc1 (relative stereo) [Example 91, [S-(R*,R*)]-3-(4-Benzyloxy-phenyl)-2-[2-(4-ethoxy-benzoylamino)-4-methyl-pentanoylamino]-propionic acid tert-butyl ester] | – | 34% | Inhibition of Calcium Flux in IMR-32 Cells % Inhibition at 10 μM: 48%
11 | COC(=O)C(Cc1ccccc1)NC(=O)NC(CC(C)C)C(=O)NC(Cc1ccc(OCc2ccccc2)cc1)C(=O)OC(C)(C)C (stereo not drawn) [Example 66, [S-(R*,R*)]-3-(4-Benzyloxy-phenyl)-{2-[3-(1-methoxycarbonyl-2-phenyl-ethyl)-ureido]-4-methyl-pentanoylamino}-propionic acid tert-butyl ester] ({OMe-Phe-CO}-Leu-Tyr(Bn)-OtBu; configuration not given here) | – | 42% | –
12 | CC(C)C[C@H](NC(=O)N1CCCCCC1)C(=O)N[C@@H](Cc1ccc(OCc2ccccc2)cc1)C(=O)NCC1CC1 [Example 206, [S-(R*,R*)]-Azepane-1-carboxylic acid {1-[2-(4-benzyloxy-phenyl)-1-(cyclopropylmethyl-carbamoyl)-ethylcarbamoyl]-3-methyl-butyl}-amide] | 1.7 µM | – | inhibition at 1 µM: 37%; inhibition at 10 µM: 87%
13 | CCCN1CCCC(NC(=O)C(Cc2ccc(OCc3ccccc3)cc2)NC(=O)C(CC(C)C)NC(=O)N2CCCCCC2)C1 (stereo not drawn) [Example 195, Azepane-1-carboxylic acid {1-[2-(4-benzyloxy-phenyl)-1-(1-propyl-piperidin-3-ylcarbamoyl)-ethylcarbamoyl]-3-methyl-butyl}-amide] | 0.58 µM | – | –
14 | CC(C)C[C@H](NC(=O)C(C)(C)C)C(=O)N[C@@H](Cc1ccc(OCc2ccccc2)cc1)C(=O)OC(C)(C)C (relative stereo) [Example 129, [S-(R*,R*)]-3-(4-Benzyloxy-phenyl)-2-[2-(2,2-dimethyl-propionylamino)-4-methyl-pentanoylamino]-propionic acid tert-butyl ester] | – | – | Inhibition of Calcium Flux in IMR-32 Cells % Inhibition at 10 μM: 74%
15 | CC(C)C[C@H](NC(=O)Nc1ccc(Cl)cc1)C(=O)N[C@@H](Cc1ccc(OCc2ccccc2)cc1)C(=O)OC(C)(C)C (relative stereo) [Example 80, [S-(R*,R*)]-3-(4-Benzyloxy-phenyl)-2-{2-[3-(4-chloro-phenyl)-ureido]-4-methyl-pentanoylamino}-propionic acid tert-butyl ester] | – | 40% | –
16 | CC(C)C[C@H](NC(=O)N1CCCCCC1)C(=O)N[C@@H](Cc1ccc(OCc2ccccc2)cc1)C(=O)N1CCOCC1 [Example 166, [S-(R*,R*)]-Azepane-1-carboxylic acid {1-[1-(4-benzyloxy-benzyl)-2-morpholin-4-yl-2-oxo-ethylcarbamoyl]-3-methyl-butyl}-amide] | 1.3 µM | – | –
17 | CC(C)C[C@H](NC(=O)N1CCOCC1)C(=O)N[C@@H](Cc1ccc(OCc2ccccc2)cc1)C(=O)N1CCCCC1 (relative stereo) [Example 151, [S(R*,R*)]-Morpholine-4-carboxylic acid {1-[1-(4-benzyloxy-benzyl)-2oxo-2-piperidin-1-ylethylcarbamoyl]-3-methyl-butyl}amide] | 4.3 µM | – | –
18 | CCC(CO)(CO)NC(=O)[C@H](Cc1ccc(OCc2ccccc2)cc1)NC(=O)[C@H](CC(C)C)NC(=O)N1CCCCCC1 (relative stereo) [Example 229, [S-(R*,R*)]-Azepane-1-carboxylic acid {1-[2-(4-benzyloxy-phenyl)-1-(1,1-bis-hydroxymethyl-propylcarbamoyl)-ethylcarbamoyl]-3-methyl-butyl}-amide] | – | 30% | Inhibition of Calcium Flux in IMR-32 Cells % Inhibition at 10 μM: 80%
19 | CC(C)C[C@H](NC(=O)Nc1cccc(Cl)c1Cl)C(=O)N[C@@H](Cc1ccc(OCc2ccccc2)cc1)C(=O)OC(C)(C)C (relative stereo) [Example 81, [S-(R*,R*)]-3-(4-Benzyloxy-phenyl)-2-{2-[3-(2,3-dichloro-phenyl)-ureido]-4-methyl-pentanoylamino}-propionic acid tert-butyl ester] | – | 32% | –
20 | CC(C)C[C@H](NC(=O)N1CCCCCC1)C(=O)N[C@@H](Cc1ccc(OCc2ccccc2)cc1)C(=O)NCc1ccncc1 [Example 178, [S-(R*,R*)]-Azepane-1-carboxylic acid (1-{2-(4-benzyloxy-phenyl)-1-[(pyridin-4-ylmethyl)carbamoyl]-ethylcarbamoyl}-3-methyl-butyl)-amide] | 3.1 µM | – | –
21 | CC(C)C[C@H](NC(=O)Nc1ccc(Cl)cc1Cl)C(=O)N[C@@H](Cc1ccc(OCc2ccccc2)cc1)C(=O)OC(C)(C)C (relative stereo) [Example 82, [S-(R*,R*)]-3-(4-Benzyloxy-phenyl)-2-{2-[3-(2,4-dichloro-phenyl)-ureido]-4-methyl-pentanoylamino}-propionic acid tert-butyl ester] | – | 55% | –
22 | CC(=O)Nc1ccc(NC(=O)[C@H](Cc2ccc(OCc3ccccc3)cc2)NC(=O)[C@H](CC(C)C)NC(=O)N2CCCCCC2)cc1 (relative stereo) [Example 216, [S-(R*,R*)]-Azepane-1-carboxylic acid {1-[1-(4-acetylamino-phenylcarbamoyl)-2-(4-benzyloxy-phenyl)-ethylcarbamoyl]-3-methyl-butyl}-amide] | – | 16% | Inhibition of Calcium Flux in IMR-32 Cells % Inhibition at 10 μM: 37%
23 | CC(C)C[C@H](NC(=O)N1CCCCCC1)C(=O)N[C@@H](Cc1ccc(OCc2ccccc2)cc1)C(=O)NC1CC1 [Example 209, [S-(R*,R*)]-Azepane-1-carboxylic acid {1-[2-(4-benzyloxy-phenyl)-1-cyclopropylcarbamoyl-ethylcarbamoyl]-3-methyl-butyl}-amide] | 2.5 µM | – | inhibition at 1 µM: 27%; inhibition at 10 µM: 82%
24 | CC(C)CC(NC(=O)N1CCCCCC1)C(=O)NC(Cc1ccc(OCc2ccccc2)cc1)C(=O)N1CCCC(CO)C1 (stereo not drawn) [Example 256, Azepane-1-carboxylic acid {1-[1-(4-benzyloxy-benzyl)-2-(3-hydroxymethyl-piperidin-1-yl)-2-oxo-ethylcarbamoyl]-3-methyl-butyl}-amide] | 1.5 µM | – | –

Reference: patent US6423689B1, “Peptidyl calcium channel blockers” (Warner-Lambert Company, priority 1997, dated 2002)
